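The compound was tested at five concentrations on cells cultured in 96-well plates, with a 48-hour exposure period. Abbreviation: GI50, concentration required for 50% inhibition of growth.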 Active and inactive are the calls of the source. No stated cut-off is given here; in the data, active = GI50 up to about 1.1 µM and inactive = higher.
Columns and labels:
Test in all cases: NCI-60 cell line screen, 48 h
786-0 = test system: 786-0
A549 = test system: A549
ACHN = test system: ACHN
CCRF-CEM = test system: CCRF-CEM
COLO 205 = test system: COLO 205
DMS-114 = test system: DMS-114
DMS-273 = test system: DMS-273
EKVX = test system: EKVX
HCT-116 = test system: HCT-116
HCT-15 = test system: HCT-15
HL-60 = test system: HL-60
HOP-62 = test system: HOP-62
HT-29 = test system: HT-29
IGROV-1 = test system: IGROV-1
K562 = test system: K562
KM-20L2 = test system: KM-20L2
KM12 = test system: KM12
LOX IMVI = test system: LOX IMVI
LXFL 529 = test system: LXFL 529
M14 = test system: M14
M19-MEL = test system: M19-MEL
MOLT-4 = test system: MOLT-4
Malme-3M = test system: Malme-3M
NCI-H226 = test system: NCI-H226
NCI-H23 = test system: NCI-H23
NCI-H460 = test system: NCI-H460
NCI-H522 = test system: NCI-H522
OVCAR-3 = test system: OVCAR-3
OVCAR-4 = test system: OVCAR-4
OVCAR-5 = test system: OVCAR-5
OVCAR-8 = test system: OVCAR-8
RPMI-8226 = test system: RPMI-8226
RXF 393 = test system: RXF 393
SF-268 = test system: SF-268
SF-295 = test system: SF-295
SF-539 = test system: SF-539
SK-MEL-28 = test system: SK-MEL-28
SK-MEL-2 = test system: SK-MEL-2
SK-MEL-5 = test system: SK-MEL-5
SN12C = test system: SN12C
SNB-19 = test system: SNB-19
SNB-75 = test system: SNB-75
SNB-78 = test system: SNB-78
SR = test system: SR
SW-620 = test system: SW-620
TK-10 = test system: TK-10
U-251 = test system: U-251
UACC-62 = test system: UACC-62
UO-31 = test system: UO-31
XF498 = test system: XF498
A498 = test system: A498
CAKI-1 = test system: CAKI-1
DLD-1 = test system: DLD-1
HCC 2998 = test system: HCC 2998
SK-OV-3 = test system: SK-OV-3
UACC-257 = test system: UACC-257
HOP-92 = test system: HOP-92

Measured: GI50

c1ccc(N2N=C(c3ccco3)CC2c2ccco2)cc1 (centres undefined)
69.8 µM: HCT-15
inactive: 786-0 > 100 µM | A549 > 100 µM | ACHN 42.6 µM | CCRF-CEM 42.3 µM | COLO 205 > 100 µM | DMS-114 49.2 µM | DMS-273 > 100 µM | EKVX 98.9 µM | HCT-116 32.5 µM | HL-60 25.2 µM | HOP-62 > 100 µM | HT-29 75.9 µM | IGROV-1 > 100 µM | K562 34.3 µM | KM-20L2 > 100 µM | KM12 47.4 µM | LOX IMVI > 100 µM | LXFL 529 64.1 µM | M14 > 100 µM | M19-MEL > 100 µM | MOLT-4 20.5 µM | Malme-3M > 100 µM | NCI-H226 66.8 µM | NCI-H23 66.5 µM | NCI-H460 66.1 µM | NCI-H522 46.9 µM | OVCAR-3 59.6 µM | OVCAR-4 > 100 µM | OVCAR-5 > 100 µM | OVCAR-8 > 100 µM | RPMI-8226 35.2 µM | RXF 393 52.4 µM | SF-268 > 100 µM | SF-295 57.1 µM | SF-539 > 100 µM | SK-MEL-28 > 100 µM | SK-MEL-2 > 100 µM | SK-MEL-5 51.4 µM | SN12C > 100 µM | SNB-19 > 100 µM | SNB-75 22.3 µM | SNB-78 > 100 µM | SR 30.3 µM | SW-620 > 100 µM | TK-10 > 100 µM | U-251 > 100 µM | UACC-62 91.6 µM | UO-31 28.6 µM | XF498 > 100 µM

BrC1=CCC23CC=C(Br)[C@H]4CC2(COC3)C[C@@H]1O4 (some centres undefined)
47.9 µM: HCT-15
inactive: 786-0 33.2 µM | A549 > 100 µM | ACHN > 100 µM | CCRF-CEM 24.4 µM | COLO 205 > 100 µM | DMS-114 28.4 µM | DMS-273 36.7 µM | EKVX > 100 µM | HCT-116 29.2 µM | HL-60 6.41 µM | HOP-62 > 100 µM | HT-29 > 10 µM | IGROV-1 > 100 µM | K562 27.5 µM | KM-20L2 59.3 µM | KM12 54.2 µM | LOX IMVI 71.6 µM | LXFL 529 40.3 µM | M14 > 100 µM | M19-MEL > 100 µM | MOLT-4 25.8 µM | Malme-3M > 100 µM | NCI-H226 44.1 µM | NCI-H23 37.2 µM | NCI-H460 48 µM | NCI-H522 24.3 µM | OVCAR-3 63.5 µM | OVCAR-4 27 µM | OVCAR-5 21.2 µM | OVCAR-8 63.8 µM | RPMI-8226 39.6 µM | RXF 393 32 µM | SF-268 16.9 µM | SF-295 > 100 µM | SF-539 84.9 µM | SK-MEL-28 22.6 µM | SK-MEL-2 54.7 µM | SK-MEL-5 > 100 µM | SN12C 52 µM | SNB-19 37.9 µM | SNB-75 20.1 µM | SNB-78 35.2 µM | SR 23.4 µM | SW-620 55 µM | TK-10 80.2 µM | U-251 79.3 µM | UACC-62 46.1 µM | UO-31 28.2 µM | XF498 76.6 µM

CCOC(=O)C(NC(=O)c1nc[nH]c1/N=N/N(C)C)C(C)C (centres undefined)
inactive: 786-0 > 100 µM | A498 > 100 µM | A549 > 100 µM | ACHN > 100 µM | CAKI-1 > 100 µM | CCRF-CEM > 100 µM | COLO 205 > 100 µM | DLD-1 > 100 µM | DMS-114 > 100 µM | DMS-273 > 100 µM | EKVX > 100 µM | HCC 2998 > 100 µM | HCT-116 > 100 µM | HL-60 > 100 µM | HOP-62 > 100 µM | HT-29 > 100 µM | IGROV-1 > 100 µM | K562 > 100 µM | KM12 > 100 µM | LOX IMVI > 100 µM | LXFL 529 > 100 µM | M14 > 100 µM | M19-MEL > 100 µM | MOLT-4 > 100 µM | Malme-3M > 100 µM | NCI-H226 > 100 µM | NCI-H23 > 100 µM | NCI-H460 > 100 µM | NCI-H522 > 100 µM | OVCAR-3 > 100 µM | OVCAR-4 > 100 µM | OVCAR-5 > 100 µM | OVCAR-8 > 100 µM | RPMI-8226 > 100 µM | SF-268 > 100 µM | SF-295 > 100 µM | SF-539 > 100 µM | SK-MEL-28 > 100 µM | SK-MEL-2 > 100 µM | SK-MEL-5 > 100 µM | SK-OV-3 > 100 µM | SN12C > 100 µM | SNB-19 > 100 µM | SNB-75 > 100 µM | SR > 100 µM | SW-620 > 100 µM | TK-10 > 100 µM | U-251 40.8 µM | UACC-257 > 100 µM | UACC-62 > 100 µM | UO-31 > 100 µM
> 100 µM: HCT-15

[N-]=[N+]=NC(c1cn(C2CC(O)C(CO)O2)c(=O)[nH]c1=O)C(Br)I (centres undefined)
> 100 µM: HCT-15
inactive: 786-0 > 100 µM | A549 > 100 µM | ACHN > 100 µM | CAKI-1 > 100 µM | CCRF-CEM > 100 µM | COLO 205 > 100 µM | DLD-1 > 100 µM | DMS-114 > 100 µM | DMS-273 > 100 µM | EKVX > 100 µM | HCC 2998 > 100 µM | HCT-116 > 100 µM | HL-60 > 100 µM | HOP-62 > 100 µM | HOP-92 > 100 µM | HT-29 > 100 µM | IGROV-1 > 100 µM | K562 > 100 µM | KM-20L2 > 100 µM | KM12 > 100 µM | LOX IMVI > 100 µM | LXFL 529 > 100 µM | M14 > 100 µM | M19-MEL > 100 µM | MOLT-4 > 100 µM | Malme-3M > 100 µM | NCI-H226 > 100 µM | NCI-H23 > 100 µM | NCI-H460 > 100 µM | NCI-H522 > 100 µM | OVCAR-3 > 100 µM | OVCAR-5 > 100 µM | OVCAR-8 > 100 µM | RPMI-8226 > 100 µM | RXF 393 > 100 µM | SF-295 > 100 µM | SF-539 > 100 µM | SK-MEL-28 > 100 µM | SK-MEL-2 > 100 µM | SK-MEL-5 > 100 µM | SK-OV-3 > 100 µM | SN12C > 100 µM | SNB-19 > 100 µM | SNB-75 > 100 µM | SNB-78 > 100 µM | SR > 100 µM | SW-620 > 100 µM | TK-10 > 100 µM | U-251 > 100 µM | UACC-62 > 100 µM | UO-31 > 100 µM

CCCCC#COS(=O)(=O)c1ccc(C)cc1
> 100 µM: HCT-15
inactive: 786-0 > 100 µM | A498 > 100 µM | A549 44.9 µM | ACHN 71.1 µM | CAKI-1 > 100 µM | CCRF-CEM 30.5 µM | COLO 205 > 100 µM | DLD-1 57.9 µM | DMS-114 44.1 µM | EKVX 56.6 µM | HCC 2998 > 100 µM | HCT-116 82.8 µM | HL-60 > 100 µM | HOP-62 > 100 µM | HT-29 > 100 µM | IGROV-1 > 100 µM | K562 45.3 µM | KM-20L2 75.9 µM | KM12 84.9 µM | LOX IMVI > 100 µM | LXFL 529 64 µM | M14 > 100 µM | M19-MEL 69.7 µM | MOLT-4 88.1 µM | Malme-3M > 100 µM | NCI-H226 14.7 µM | NCI-H23 92.9 µM | NCI-H460 79.3 µM | NCI-H522 54.1 µM | OVCAR-3 > 100 µM | OVCAR-4 65.9 µM | OVCAR-5 > 100 µM | OVCAR-8 > 100 µM | RPMI-8226 46.2 µM | SF-268 > 100 µM | SF-295 > 100 µM | SF-539 > 100 µM | SK-MEL-2 > 100 µM | SK-MEL-5 > 100 µM | SK-OV-3 88.7 µM | SN12C > 100 µM | SNB-19 > 100 µM | SNB-78 > 100 µM | SR 53 µM | SW-620 > 100 µM | U-251 86.5 µM | UACC-257 > 100 µM | UACC-62 > 100 µM | UO-31 > 100 µM

Reference: ChEMBL document CHEMBL1201862, “PubChem BioAssay data set” (2004)
